Data: patent US20160206592A1, “METHOD FOR TREATING AMYOTROPHIC LATERAL SCLEROSIS BY INHIBITION OF CXCR4/CXCL12 SIGNALING” (RAMOT AT TEL-AVIV UNIVERSITY LTD., priority 2013, published 2016)
Read-outs that look alike come from different tables or passages of the source.

Tests used:
[1] = tested on: SOD1-G93A female and male mice
Method: FIGS. 4A-4C are graphs showing survival (Kaplan-Meier curves; P-value=0.0001) of SOD1-G93A female and male mice subcutaneously treated with either 5 mg/kg AMD3100 or PBS, starting at 50 days old; N=29 (AMD3100), N=16 (PBS).

[2] = tested on: NSC-34 cells stably transfected with mutant SOD1; details: 25 ug AMD3100, astrocytes from newborn SODG93A mice incubated 24 h, compared to other concentrations
Method: Primary astrocytes from 3 days old newborn SODG93A mice were incubated AMD3100 for 24 h. Media of treated astrocytes was then added to NSC-34 cells stably transfected with mutant SOD1.

transgenic G93A mice = details: G93A female mice, s.c. once and twice a week
Excerpt: Six mice received AMD3100 once a week, eight mice received AMD3100 twice a week, and seven mice received PBS once a week.
For this purpose, the present inventors treated G93A female mice subcutaneously with either AMD3100 or PBS, starting at 70 days old. Six mice received AMD3100 once a week, eight mice received AMD3100 twice a week, and seven mice received PBS once a week.

activated microglia = details: female SODG93A mice, 5 mg/kg s.c. twice a week from 50 days old, sacrificed at 110 days old
Method: 50 days old female SODG93A mice were s.c injected with 5 mg/kg AMD3100 twice a week. On 110 days old mice were sacrificed and analyzed using western blot for inflammatory markers of activated microglia. FIG. 7A. is cd36 levels. FIG. 7B. is Iba-1 levels.
Loss of upper and lower MNs results in progressive muscle paralysis and ultimately death due to respiratory failure. Although initially thought to derive from the selective loss of MNs, the pathogenic concept of non-cell autonomous disease has come to the fore front for the contribution of glial cells in ALS, in particular microglia. […] Conversely, activated microglia contributes and enhances MN death by secreting neurotoxic factors, and impaired microglial function at the end-stage may instead accelerate disease progression. However, the nature of microglial-neuronal interactions that lead to MN degeneration remains elusive.

[3] = tested on: ZO-1, claudin 5, Occludin; details: female SODG93A mice, 5 mg/kg s.c. twice a week from 50 days old, sacrificed at 110 days old
Method: FIGS. 9A-9C show Blood-CNS-Barrier markers levels following AMD3100 treatment. 50 days old female SODG93A mice were s.c injected with 5 mg/kg AMD3100 twice a week. On 110 days old mice were sacrificed and analyzed for B-CNS-B markers using western blot.
Endothelial cells play an important role in B-CNS-B function. B-CNS-B dysfunction is recognized to participate in neurodegenerative disorders. […] TJPs such as ZO-1, occludin and the claudin family exist in cerebral vascular endothelial cells, which are the most crucial factors modulating barrier integrity. […] The expression of TJPs has been reported to contribute to barrier function. ZO-1 and claudin-5 are the most important components for cell barrier integrity. Claudin-5 can greatly reduce dextran permeability and improve transendothelial electrical resistance and plays an essential role in the earliest stage of CNS angiogenesis. ZO-1 serves as a bridge between transmembrane proteins and skeleton proteins, and this interaction is important to the stability and function of endothelial barrier. […] All these three proteins are known to be reduced by 40%-60% in both animal models of ALS and humans, even prior to disease onset (Zhong et al., 2008).

[4] = females only, 5 mg/kg twice a week
[5] = males and females together, 5 mg/kg s.c., starting at 50 days old
[6] = males only, 5 mg/kg twice a week

For c1cc(CN2CCCNCCNCCCNCC2)ccc1CN1CCCNCCNCCCNCC1 [AMD3100, 1,1′-[1,4-Phenylenebis(methylene)]bis-1,4,8,11-tetraazacyclotetradecane], the mean survival [1, 4] was 146 days, the median survival [1, 4] was 144 days and the “survival (versus PBS)” value [1, 4] was 14 days. The mean survival [1, 5] was 144 days, the median survival [1, 5] was 143 days and the “survival according to Kaplan-Meier curve (versus PBS)” value [1, 5] was 12 days. For the same molecule, the mean survival [1, 6] was 141 days, the median survival [1, 6] was 139 days and the “survival (versus PBS)” value [1, 6] was 8 days. The “survival of motor neuron like cells” value [2] was “increased the survival”, the “extension of survival compared with control (PBS) mice” value (transgenic G93A mice) was “about 14 days” and the age at death (transgenic G93A mice; starting at 70 days old) was ~170 days old. For the same molecule, the Iba-1 levels (activated microglia) was “significant reduction”, the cd36 levels (activated microglia) was “significant reduction” and the Occludin levels [3] was “effective in restoring the expression”. For the same molecule, the ZO-1 levels [3] was “effective in restoring the expression” and the “claudin 5 levels” value [3] was “effective in restoring the expression”.
